From patent US20130142866A1, “COMPOSITIONS AND METHODS FOR IMPROVED ORGAN TRANSPLANT PRESERVATION AND ACCEPTANCE” (NOVALIQ GMBH, priority 2010, published 2013)
Values after ≈ are worked out from the molar mass of the structure shown. “Also recorded” adds a separate entry of the source. Blank lines part the entries; values can stand above or below the compound they belong to.

How the values were obtained:
Cardiomyocytes = test: Cold storage injury of cardiomyocytes (ATP, LDH release, contraction rate); assay type: cell-based, rats
Procedure: Cardiomyocytes were freshly isolated from new born rats and cultured for 3 days. […] ATP levels and LDH release was measured after 8 hours of cold preservation and hereafter cardiomyocytes were re-warmed and the contraction rate per well and ATP regeneration were determined.

freshly isolated T-cells = test: T-cell proliferation, anti-CD3/anti-CD28 activation, 3H-thymidine incorporation; assay type: cell-based
Procedure: A cell-culture system was used in which freshly isolated T-cells were polyclonally activated by anti-CD3/anti-CD28 beads. The cells were allowed to proliferate for at least 10 days in the presence or absence of different dilutions of the composition of the invention. T-cell proliferation was assessed on day 3, 5, 7 and 10 by means of 3H-thymidine incorporation. In this model, T-cell proliferation is maximal at day 3 and gradually declines at day 10.
The experiments were repeated, except that freshly isolated T-cells were stimulated with anti-CD3/antio-CD28 antibodies in the presence of the composition diluted to a concentration of 50 μM of N-octanoyl dopamine and various concentrations of ciclosporin A or tacrolimus. Similar concentrations of ciclosporin A or tacrolimus were also tested in the absence of the composition.

[1] = Solubilisation of N-octanoyl dopamine by polysorbates; assay type: physicochemical; settings: 0.5 wt.-% polysorbate 20 or polysorbate 80 solution, aqueous with cosolvent or surfactant or cyclodextrin; 0.5 wt.-% polysorbate 20 or polysorbate 80, individually; read-out: amount of N-octanoyl dopamine solubilised
Excerpt: In one particular embodiment, the amount of amphiphilic excipient is at least about 0.05 wt.-%. According to a further embodiment, the amount is from about 0.1 wt.-% to about 30 wt.-%, or from about 0.5 wt.-% to about 20 wt.-%, respectively. […] However, if the composition is to be used as a concentrate to be added to a commercial solution for tissue and organ preservation, the concentrate itself may also comprise the amphiphilic excipient at a relatively high concentration, taking into account the dilution factor. In a further embodiment, the ratio of N-octanoyl dopamine to the amphiphilic excipient is selected in the range from about 5:1 to about 1:50.

[2] = Compatibility with organ preservation solutions (UW, HTK); assay type: physicochemical; settings: usual behaviour, leading to brownish-pink colour
Procedure: Two samples of the formulation of example 4 having a N-octanoyl dopamine concentration of 11.16 mg/mL were individually mixed with either University of Wisconsin solution (Viaspan, or UW) or histidine-tryptophan-ketoglutarate (HTK) solution (Custodiol) at a volume ratio of 1:4 (1 part of the inventive composition plus 4 parts of the conventional solution).

[3] = test system: Human umbilical vein endothelial cells (HUVEC) stimulated with TNF-α; test: TNF-α-mediated inflammation in HUVEC (gene expression profiling, qPCR, Western blotting, NF-κB activation); assay type: cell-based
Procedure: Human umbilical vein endothelial cells (HUVEC) were stimulated with TNF-α (tumour-necrosis-factor alpha) in the absence or presence of various concentrations of the N-octanoyl dopamine formulation. Affymetrix Gene Expression Profiling, quantitative PCR, Western-blotting and NF-κB activation were performed to assess the anti-inflammatory potential of the composition of the invention. As a comparator, a surfactant-free aqueous dispersion of N-octanoyl dopamine, which is not an embodiment of the invention, was also tested.

Compound: NCCc1ccc(O)c(O)c1 [dopamine]
LDH-release after cold storage (Cardiomyocytes; 8 hours at 4° C., FIG. 2): inhibited | ATP level after cold storage (Cardiomyocytes; 8 hours at 4° C., compared with untreated cells, FIG. 1): dose-dependent mitigation of ATP loss | regeneration of ATP after re-warming (Cardiomyocytes; after 8 hours at 4° C., compared to untreated cells): much faster | contraction rate after re-warming (Cardiomyocytes; after 8 hours at 4° C., treated cells): significantly improved rate

Compound: C=CC[C@@H]1/C=C(\C)C[C@H](C)C[C@H](OC)[C@H]2O[C@@](O)(C(=O)C(=O)N3CCCC[C@H]3C(=O)O[C@H](/C(C)=C/[C@@H]3CC[C@@H](O)[C@H](OC)C3)[C@H](C)[C@@H](O)CC1=O)[C@H](C)C[C@@H]2OC [tacrolimus, reference compound]
concentration of maximal inhibition of T-cell proliferation (freshly isolated T-cells; calcineurin inhibitor alone, absence of the composition): 1 µM | ciclosporin A or tacrolimus concentration still giving complete inhibition of T-cell proliferation (freshly isolated T-cells; in the presence of 50 μM N-octanoyl dopamine): 1 nM

solubility [1]: 40 mM (≈ 11.2 mg/mL) | oxidation of N-octanoyl dopamine when mixed with UW or HTK [2]: occurs very rapidly
Compound: CCCCCCCC(=O)NCCc1ccc(O)c(O)c1 [N-octanoyl dopamine, N-octanoyl-4-(2-aminoethyl)benzene-1,2-diol]
HO-1 expression [3]: strongly upregulated | concentration at which HO-1 was significantly induced [3]: 1 µM | concentration required for inhibition of VCAM-1 expression [3]: 50 µM | T-cell proliferation (freshly isolated T-cells; 25 μM N-octanoyl dopamine): without effect | T-cell proliferation (freshly isolated T-cells; 50 μM N-octanoyl dopamine): inhibited T-cell proliferation at day 3; also recorded: only partly inhibited T-cell proliferation at day 3 but not thereafter | reduction of the amount of calcineurin inhibitor required for complete T-cell suppression (freshly isolated T-cells; 50 μM N-octanoyl dopamine): at least 1000 fold | T-cell proliferation (freshly isolated T-cells; 100 μM N-octanoyl dopamine): inhibited at day 3, day 5 and partly at day 7 | NFκB and AP-1 in T-cells (freshly isolated T-cells; downstream of early T-cell receptor signalling events): inhibition | inhibition of T-cell proliferation after oxidation / without redox activity (freshly isolated T-cells; oxidation of N-octanoyl dopamine, or compounds lacking redox activity): abrogated
